One may read the EC50 as the concentration at which the effect is half-maximal.

Assay [1] addresses T1, eIF2B-α (Homo sapiens, UniProt Q14232).
T1 construct: gene EIF2B1; purified recombinant alpha subunit, homodimer
T1 sequence (Q14232 1-305): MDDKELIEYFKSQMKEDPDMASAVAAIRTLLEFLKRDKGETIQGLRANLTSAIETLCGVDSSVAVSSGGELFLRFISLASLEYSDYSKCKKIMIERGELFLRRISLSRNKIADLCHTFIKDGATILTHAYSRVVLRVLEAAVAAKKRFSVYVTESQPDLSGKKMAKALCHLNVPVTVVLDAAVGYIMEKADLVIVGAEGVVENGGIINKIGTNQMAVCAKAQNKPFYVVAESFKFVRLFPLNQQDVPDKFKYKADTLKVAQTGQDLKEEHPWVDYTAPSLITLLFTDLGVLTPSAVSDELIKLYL
Description: NanoDSF thermal unfolding. The assay is classed as binding. Conditions: stabilises; concentration not told in main text. A general note: In DSF a fluorescence change marks the thermal transition of the protein.

For assay [2], the target named is T2, eIF2B (Mus musculus, UniProt Q61749+Q99LD9).
T2 construct: gene Eif2b2; endogenous complex in MIN-6 cells or their lysate; decamer α2β2δ2(γε)2; alpha subunit strongly depleted in N208Y cells (mostly octamer β2δ2γ2ε2); with Translation initiation factor eIF2B subunit alpha; Translation initiation factor eIF2B subunit gamma; Translation initiation factor eIF2B subunit epsilon
T2 sequence (Q99LD9 whole entry): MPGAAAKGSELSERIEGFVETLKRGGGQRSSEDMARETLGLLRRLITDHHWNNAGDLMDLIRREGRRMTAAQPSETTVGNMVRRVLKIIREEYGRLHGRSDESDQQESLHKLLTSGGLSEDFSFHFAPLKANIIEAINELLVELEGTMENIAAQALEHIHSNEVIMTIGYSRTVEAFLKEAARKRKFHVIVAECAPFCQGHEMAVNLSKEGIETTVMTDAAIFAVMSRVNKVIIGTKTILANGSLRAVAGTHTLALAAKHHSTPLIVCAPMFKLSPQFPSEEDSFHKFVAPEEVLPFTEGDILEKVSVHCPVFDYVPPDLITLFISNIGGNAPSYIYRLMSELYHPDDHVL
T2 sequence (Q61749 2-524): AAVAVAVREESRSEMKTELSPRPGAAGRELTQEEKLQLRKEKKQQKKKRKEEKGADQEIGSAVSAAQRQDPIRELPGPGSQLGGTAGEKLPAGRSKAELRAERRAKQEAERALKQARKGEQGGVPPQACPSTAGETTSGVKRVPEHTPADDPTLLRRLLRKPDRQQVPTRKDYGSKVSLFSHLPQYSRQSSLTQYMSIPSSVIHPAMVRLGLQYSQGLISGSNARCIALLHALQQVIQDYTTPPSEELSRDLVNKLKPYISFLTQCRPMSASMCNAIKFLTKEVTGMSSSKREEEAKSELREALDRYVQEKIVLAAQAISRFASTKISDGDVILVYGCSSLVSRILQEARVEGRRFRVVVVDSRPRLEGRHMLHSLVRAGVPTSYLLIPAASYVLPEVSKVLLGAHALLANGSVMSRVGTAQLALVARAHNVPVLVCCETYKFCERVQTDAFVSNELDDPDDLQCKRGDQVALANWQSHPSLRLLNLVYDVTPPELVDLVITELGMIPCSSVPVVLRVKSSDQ
T2 sequence (Q99LC8 whole entry N208Y partner): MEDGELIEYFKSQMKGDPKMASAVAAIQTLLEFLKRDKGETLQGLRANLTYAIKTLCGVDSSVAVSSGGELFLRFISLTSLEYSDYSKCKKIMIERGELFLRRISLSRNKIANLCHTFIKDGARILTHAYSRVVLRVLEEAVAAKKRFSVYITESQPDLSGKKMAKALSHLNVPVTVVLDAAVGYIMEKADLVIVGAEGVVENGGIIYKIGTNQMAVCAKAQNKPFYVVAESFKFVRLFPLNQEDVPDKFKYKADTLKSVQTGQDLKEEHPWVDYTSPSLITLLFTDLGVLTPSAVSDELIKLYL
T2 sequence (Q8CHW4 whole entry partner): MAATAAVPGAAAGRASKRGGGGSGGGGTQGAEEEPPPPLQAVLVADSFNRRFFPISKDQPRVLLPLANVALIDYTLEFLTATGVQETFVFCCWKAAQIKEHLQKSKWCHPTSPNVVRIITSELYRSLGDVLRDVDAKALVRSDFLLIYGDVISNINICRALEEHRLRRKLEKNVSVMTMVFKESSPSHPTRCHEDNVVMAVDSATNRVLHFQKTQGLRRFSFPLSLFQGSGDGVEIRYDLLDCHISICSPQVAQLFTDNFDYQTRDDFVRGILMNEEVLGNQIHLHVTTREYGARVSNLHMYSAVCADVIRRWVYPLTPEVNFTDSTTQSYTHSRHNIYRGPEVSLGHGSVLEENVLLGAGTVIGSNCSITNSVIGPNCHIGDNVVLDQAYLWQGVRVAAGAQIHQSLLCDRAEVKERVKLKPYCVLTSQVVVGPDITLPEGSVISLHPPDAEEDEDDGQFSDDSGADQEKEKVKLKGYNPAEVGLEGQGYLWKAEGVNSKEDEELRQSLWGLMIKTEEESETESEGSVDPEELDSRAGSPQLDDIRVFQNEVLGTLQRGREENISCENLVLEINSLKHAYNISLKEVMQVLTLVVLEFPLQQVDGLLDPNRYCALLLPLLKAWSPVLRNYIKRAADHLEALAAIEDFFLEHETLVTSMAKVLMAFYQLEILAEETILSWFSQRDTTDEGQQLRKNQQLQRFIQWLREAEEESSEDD
The assay is described as follows: 2BAct dose response in N208Y cells (read-out only in supplement). The assay is classed as cell-based. Conditions: activator, cell line not restated, read-out not told in main text.

Each structure is given as a SMILES string.

`O=P(O)(O)OC[C@H]1OC(O)(CO)[C@@H](O)[C@@H]1O` (some centres unmarked) [fructose-6-phosphate]: the Tm entry in assay [1] is “addition of F6P further increased the stability of WT eIF2B-α”.
Consider `O=C(COc1ccc(Cl)c(F)c1)NC12CC(NC(=O)c3cnc(C(F)F)cn3)(C1)C2` [2BAct], for which the EC50 in assay [2] was determined as 27.8 nM.
